According to US10766865B2, “PKM2 modulators and methods for their use” (TOLERO PHARMACEUTICALS, INC., priority 2012, dated 2020):

Biological target: PKM2 (Homo sapiens, UniProt P14618)
Assay: PKM2 Biochemical Assay
Conditions: % maximum response in a biochemical assay as compared with Fructose 1,6-bisphosphate

PKM2, sequence (P14618 whole entry): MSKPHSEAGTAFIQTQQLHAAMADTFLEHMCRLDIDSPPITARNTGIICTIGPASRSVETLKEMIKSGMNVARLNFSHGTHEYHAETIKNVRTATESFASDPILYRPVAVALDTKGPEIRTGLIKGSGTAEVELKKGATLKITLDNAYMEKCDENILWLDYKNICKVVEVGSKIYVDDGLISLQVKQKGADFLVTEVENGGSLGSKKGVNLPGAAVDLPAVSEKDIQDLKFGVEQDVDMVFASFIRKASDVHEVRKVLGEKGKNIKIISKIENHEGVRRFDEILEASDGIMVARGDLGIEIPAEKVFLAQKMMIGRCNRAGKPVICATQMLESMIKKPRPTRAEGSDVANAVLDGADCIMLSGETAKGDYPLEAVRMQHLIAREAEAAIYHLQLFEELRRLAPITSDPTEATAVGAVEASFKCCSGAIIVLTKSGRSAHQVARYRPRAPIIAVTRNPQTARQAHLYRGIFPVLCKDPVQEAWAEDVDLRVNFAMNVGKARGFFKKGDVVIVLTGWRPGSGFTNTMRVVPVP

Compound | Max. Resp. [%]
O=C1CCC(CCN(Cc2ccccc2F)C(=O)c2cc(C(F)(F)F)n[nH]2)CC1 [Example 60, N-(2-fluorobenzyl)-N-(2-(4-oxocyclohexyl)ethyl)-3-(trifluoromethyl)-1H-pyrazole-5-carboxamide] | 105
O=C(c1cc(C(F)(F)F)n[nH]1)N(CCC1CCS(=O)(=O)C1)Cc1ccccc1F (stereo not drawn) [Example 63] | 87
O=C(c1cc(C(F)(F)F)n[nH]1)N(CCC1CCS(=O)(=O)C1)Cc1c(Cl)cccc1Cl (stereo not drawn) [Example 64] | 71
O=C(c1cc(C(F)(F)F)n[nH]1)N(CCC1CCS(=O)(=O)C1)Cc1c(F)cccc1F (stereo not drawn) [Example 66] | 102
O=C(c1cc(C(F)(F)F)n[nH]1)N(CCC1CCS(=O)(=O)C1)Cc1cccc(F)c1 (stereo not drawn) [Example 67] | 95
O=C(c1cc(C(F)(F)F)n[nH]1)N(CCC1CCS(=O)(=O)C1)Cc1cccc(F)c1F (stereo not drawn) [Example 68] | 103
O=C(c1cc(C(F)(F)F)n[nH]1)N(CCC1CCS(=O)(=O)C1)Cc1cc(F)cc(F)c1 (stereo not drawn) [Example 69] | 74
O=C(c1cc(C(F)(F)F)n[nH]1)N(CCC1CCS(=O)(=O)C1)Cc1cc(F)ccc1F (stereo not drawn) [Example 70] | 91
O=C(c1cc(C(F)(F)F)n[nH]1)N(Cc1ccccc1F)CC1CCS(=O)(=O)CC1 [Example 71] | 71
O=C(c1cc(C(F)(F)F)n[nH]1)N(Cc1ccccc1Cl)CC1CCS(=O)(=O)CC1 [Example 72] | 22
O=C(c1cc(C(F)(F)F)n[nH]1)N(CCC1CCSCC1)Cc1ccccc1Cl [Example 73, N-(2-chlorobenzyl)-N-(2-(tetrahydro-2H-thiopyran-4-yl)ethyl)-3-(trifluoromethyl)-1H-pyrazole-5-carboxamide] | 79
O=C(c1cc(C(F)(F)F)n[nH]1)N(CCC1CC[S+]([O-])CC1)Cc1ccccc1Cl (stereo not drawn) [Example 74, N-(2-CHLOROBENZYL)-N-(2-(1-OXIDOTETRAHYDRO-2H-THIOPYRAN-4-YL)ETHYL)-3-(TRIFLUOROMETHYL)-1H-PYRAZOLE-5-CARBOXAMIDE] | 95
O=C(c1cc(C(F)(F)F)n[nH]1)N(CCC1CCS(=O)(=O)C1)Cc1ccc(O)cc1F (stereo not drawn) [Example 76] | 93
Nc1ccccc1CN(CCC1CCS(=O)(=O)C1)C(=O)c1cc(C(F)(F)F)n[nH]1 (stereo not drawn) [Example 77] | 43
O=C(c1cc(C(F)(F)F)n[nH]1)N(CCC1CCSCC1)Cc1ccccc1F [Example 79] | 95
O=C(c1cc(Cl)n[nH]1)N(CCC1CCSCC1)Cc1ccccc1F [Example 80] | 46
O=C(c1cc(Cl)n[nH]1)N(CCC1CCS(=O)(=O)CC1)Cc1ccccc1F [Example 81] | 72
O=C(c1cc(Br)n[nH]1)N(CCC1CCSCC1)Cc1ccccc1F [Example 82] | 74
O=C(c1cc(Br)n[nH]1)N(CCC1CCS(=O)(=O)CC1)Cc1ccccc1F [Example 83] | 98
O=C(c1cc(C(F)(F)F)n[nH]1)N(CCC1CCSCC1)Cc1c(F)cccc1F [Example 84] | 73
O=C(c1cc(C(F)(F)F)n[nH]1)N(CCC1CCS(=O)(=O)CC1)Cc1c(F)cccc1F [Example 85] | 100

More lines, now with the values ahead:

Max. Resp. [%] | Compound
98 | O=C(c1cc(C(F)(F)F)n[nH]1)N(CCC1CCSCC1)Cc1ccc(O)cc1F [Example 86]
100 | O=C(c1cc(C(F)(F)F)n[nH]1)N(CCC1CCS(=O)(=O)CC1)Cc1ccc(O)cc1F [Example 87]
96 | O=C(c1cc(C(F)(F)F)n[nH]1)N(CCC1CCS(=O)(=O)C1)Cc1ccccn1 (stereo not drawn) [Example 88]
35 | O=C(c1cc(C(F)(F)F)n[nH]1)N(CCC1CCS(=O)(=O)C1)Cc1ccncc1 (stereo not drawn) [Example 89]
24 | O=C(c1cc(C(F)(F)F)n[nH]1)N(CCC1CCS(=O)(=O)C1)Cc1cccnc1 (stereo not drawn) [Example 90]
74 | O=C(c1cc(C(F)(F)F)n[nH]1)N(CCC1CCS(=O)(=O)C1)Cc1ncccc1Cl (stereo not drawn) [Example 92]
26 | O=C(c1cc(C(F)(F)F)n[nH]1)N(CCC1CCS(=O)(=O)C1)Cc1cncs1 (stereo not drawn) [Example 93]
69 | O=C(c1cc(C(F)(F)F)n[nH]1)N(CCC1CCS(=O)(=O)C1)Cc1cccc([N+](=O)[O-])c1Cl (stereo not drawn) [Example 94, N-(2-chloro-3-nitrobenzyl)-N-(2-(1,1-dioxidotetrahydrothiophen-3-yl)ethyl)-3-(trifluoromethyl)-1H-pyrazole-5-carboxamide]
56 | O=C(c1cc(C(F)(F)F)n[nH]1)N(CCC1CCNCC1)Cc1ccccc1F [Example 98]
100 | CS(=O)(=O)N1CCC(CCN(Cc2ccccc2F)C(=O)c2cc(C(F)(F)F)n[nH]2)CC1 [Example 99]
29 | CN1CCC(CN(Cc2ccccc2F)C(=O)c2cc(C(F)(F)F)n[nH]2)CC1 [Example 100]
42 | CN1CCN(CCN(Cc2ccccc2F)C(=O)c2cc(C(F)(F)F)n[nH]2)CC1 [Example 103]
63 | CN1CCN(CCN(Cc2ccccc2Cl)C(=O)c2cc(C(F)(F)F)n[nH]2)CC1 [Example 104]
71 | CCN1CCC(CCN(Cc2c(Cl)cccc2Cl)C(=O)c2cc(C(F)(F)F)n[nH]2)CC1 [Example 105]
115 | CCN1CCN(CCN(Cc2ccccc2F)C(=O)c2cc(C(F)(F)F)n[nH]2)CC1 [Example 106]
85 | O=C(c1cc(C(F)(F)F)n[nH]1)N(CCN1CCS(=O)(=O)CC1)Cc1ccccc1Cl [Example 107]
92 | O=C(c1cc(C(F)(F)F)n[nH]1)N(CCN1CCS(=O)(=O)CC1)Cc1ccccc1F [Example 108]
94 | O=C(c1cc(C(F)(F)F)n[nH]1)N(CCN1CCS(=O)(=O)CC1)Cc1c(F)cccc1F [Example 109]
84 | O=C(c1cc(C(F)(F)F)n[nH]1)N(CCN1CCS(=O)(=O)CC1)Cc1c(Cl)cccc1Cl [Example 110]
64 | O=C(c1cc(C(F)(F)F)n[nH]1)N(CCN1CCS(=O)(=O)CC1)Cc1cccc(F)c1F [Example 111]
91 | Nc1cccc(CN(CCN2CCS(=O)(=O)CC2)C(=O)c2cc(C(F)(F)F)n[nH]2)c1 [Example 112]
104 | CC[C@](C)(N)C(=O)Oc1ccc(CN(CC2CCC2)C(=O)c2cc(Cl)n[nH]2)c(F)c1 [Example 115, (S)-4-((3-chloro-N-(cyclobutylmethyl)-1H-pyrazole-5-carboxamido)methyl)-3-fluorophenyl 2-amino-2-methylbutanoate]
100 | CN(C)Cc1c[nH]c2cccc(CN(CC3CCC3)C(=O)c3cc(Cl)n[nH]3)c12 [Example 118, 3-CHLORO-N-(CYCLOBUTYLMETHYL)-N-((3-((DIMETHYLAMINO)METHYL)-1H-INDOL-4-YL)METHYL)-1H-PYRAZOLE-5-CARBOXAMIDE]
100 | O=C(c1cc(Cl)n[nH]1)N(Cc1cccc2[nH]cnc12)CC1CCC1 [Example 119, N-((1H-benzo[d]imidazol-4-yl)methyl)-3-chloro-N-(cyclobutylmethyl)-1H-pyrazole-5-carboxamide]
